Bridge positions count the residues as written; N and C are the ends. Square brackets hold non-standard residues; d marks the D form. Peptide text beside a SMILES is read from it. R8 = C=CCCCCCC[C@@](C)(N)C(=O)O; S5 = C=CCCC[C@](C)(N)C(=O)O; Nle = CCCC[C@H](N)C(=O)O
Key:
Expi293 cells [1] = settings: luminescence at Tfinal (22 hours) divided by Tinitial, measure of ATP levels, reflective of cell health
Expi293 cells [2] = settings: percentage of Helicons in cells after treatment and wash; Expi293 cells 1x10^6 cells/mL, 22 hours, 37°C; washed twice with DPBS; MS quantitation, single-point calibration; n=2, mean ± SD

Compound | CellTiter-Glo fold change ± SD (Expi293 cells [1]) | Helicon in cells ± SD (%) (Expi293 cells [2])
CC(=O)N[C@@H](CC(C)C)C(=O)N[C@H](C(=O)N[C@@H](Cc1ccccc1)C(=O)N[C@]1(C)CCCCCCC=CCCC[C@@](C)(C(=O)N[C@@H](CO)C(=O)N[C@@H](C)C(=O)N[C@@H](C)C(N)=O)NC(=O)[C@H](CC2CCC2)NC(=O)[C@H](CCC(N)=O)NC(=O)[C@H](C)NC(=O)[C@H](Cc2c[nH]c3ccccc23)NC(=O)[C@H](Cc2ccc(O)cc2)NC(=O)[C@H](CCC(=O)O)NC1=O)[C@@H](C)O [FP01413, reference compound] | 1.2 ± 0.07 | 3.7 ± 0.4
CCCC[C@H](NC(=O)[C@@H](NC(C)=O)C(C)C)C(=O)N[C@@H](CCC(=O)O)C(=O)N[C@]1(C)CCCCCCC=CCCC[C@@](C)(C(=O)N[C@@H](Cc2c[nH]cn2)C(=O)N[C@@H](Cc2ccc(O)cc2)C(=O)N[C@H](C(N)=O)C(C)C)NC(=O)[C@H]([C@@H](C)CC)NC(=O)[C@H](Cc2ccccc2)NC(=O)[C@H](C)NC(=O)[C@H](C)NC(=O)[C@H](CCC(=O)O)NC(=O)[C@H](Cc2ccc(O)cc2)NC1=O [FP07855] (Ac-V[Nle]E[R8]YEAAFI[S5]HYV-NH2; staple 4-11) | 1.2 ± 0.10 | 16.4 ± 0.6
CCCC[C@H](NC(=O)[C@@H](NC(C)=O)C(C)C)C(=O)N[C@@H](CCC(=O)O)C(=O)N[C@]1(C)CCCCCCC=CCCC[C@@](C)(C(=O)N[C@@H](Cc2c[nH]cn2)C(=O)N[C@@H](Cc2ccc(O)cc2)C(=O)N[C@H](C(N)=O)C(C)C)NC(=O)[C@H]([C@@H](C)CC)NC(=O)[C@H](Cc2ccccc2)NC(=O)[C@H](C)NC(=O)[C@H](C)NC(=O)[C@H](CCC(=O)O)NC(=O)[C@H](Cc2ccc(O)cc2)NC1=O [FP07856] (Ac-V[Nle]E[R8]YEAAFI[S5]HYV-NH2; staple 4-11) | 1.3 ± 0.12 | 15.5 ± 0.9
CC[C@H](C)[C@H](NC(C)=O)C(=O)N[C@@H](CC(C)C)C(=O)N[C@@H](CCC(N)=O)C(=O)N[C@]1(C)CCCCCCC=CCCC[C@@](C)(C(=O)N[C@@H](Cc2c[nH]cn2)C(=O)N[C@@H](Cc2ccc(O)cc2)C(=O)N[C@@H](CCC(N)=O)C(N)=O)NC(=O)[C@H](CO)NC(=O)[C@H](Cc2ccccc2)NC(=O)[C@H](C)NC(=O)[C@H](C)NC(=O)[C@H](CCC(=O)O)NC(=O)[C@H](Cc2ccc(O)cc2)NC1=O [FP07859] (Ac-ILQ[R8]YEAAFS[S5]HYQ-NH2; staple 4-11) | 1.2 ± 0.02 | 0.1 ± 0.0
CC[C@H](C)[C@H](NC(C)=O)C(=O)N[C@@H](CC(C)C)C(=O)N[C@@H](CCC(N)=O)C(=O)N[C@]1(C)CCCCCCC=CCCC[C@@](C)(C(=O)N[C@@H](Cc2c[nH]cn2)C(=O)N[C@@H](Cc2ccc(O)cc2)C(=O)N[C@@H](CCC(N)=O)C(N)=O)NC(=O)[C@H](CO)NC(=O)[C@H](Cc2ccccc2)NC(=O)[C@H](C)NC(=O)[C@H](C)NC(=O)[C@H](CCC(=O)O)NC(=O)[C@H](Cc2ccc(O)cc2)NC1=O [FP07860] (Ac-ILQ[R8]YEAAFS[S5]HYQ-NH2; staple 4-11) | 1.2 ± 0.03 | 0.3 ± 0.0
CCCC[C@H](NC(=O)[C@@H](NC(C)=O)C(C)C)C(=O)N[C@@H](CCC(N)=O)C(=O)N[C@]1(C)CCCCCCC=CCCC[C@@](C)(C(=O)N[C@@H](Cc2c[nH]cn2)C(=O)N[C@@H](Cc2ccc(O)cc2)C(=O)N[C@H](C(N)=O)C(C)C)NC(=O)[C@H]([C@@H](C)CC)NC(=O)[C@H](Cc2ccccc2)NC(=O)[C@H](C)NC(=O)[C@H](C)NC(=O)[C@H](CCC(=O)O)NC(=O)[C@H](Cc2ccc(O)cc2)NC1=O [FP07863] (Ac-V[Nle]Q[R8]YEAAFI[S5]HYV-NH2; staple 4-11) | 1.2 ± 0.02 | 23.5 ± 6.5
CCCC[C@H](NC(=O)[C@@H](NC(C)=O)C(C)C)C(=O)N[C@@H](CCC(N)=O)C(=O)N[C@]1(C)CCCCCCC=CCCC[C@@](C)(C(=O)N[C@@H](Cc2c[nH]cn2)C(=O)N[C@@H](Cc2ccc(O)cc2)C(=O)N[C@H](C(N)=O)C(C)C)NC(=O)[C@H]([C@@H](C)CC)NC(=O)[C@H](Cc2ccccc2)NC(=O)[C@H](C)NC(=O)[C@H](C)NC(=O)[C@H](CCC(=O)O)NC(=O)[C@H](Cc2ccc(O)cc2)NC1=O [FP07864] (Ac-V[Nle]Q[R8]YEAAFI[S5]HYV-NH2; staple 4-11) | 1.1 ± 0.05 | 18.5 ± 11.4
CCCC[C@H](NC(=O)[C@@H](NC(C)=O)C(C)C)C(=O)N[C@@H](CCC(=O)O)C(=O)N[C@]1(C)CCCCCCC=CCCC[C@@](C)(C(=O)N[C@@H](Cc2c[nH]cn2)C(=O)N[C@@H](Cc2ccc(O)cc2)C(=O)N[C@H](C(N)=O)C(C)C)NC(=O)[C@H]([C@@H](C)CC)NC(=O)[C@H](Cc2ccccc2)NC(=O)[C@H](C)NC(=O)[C@H](C)NC(=O)[C@H](CCC(N)=O)NC(=O)[C@H](Cc2ccc(O)cc2)NC1=O [FP07867] (Ac-V[Nle]E[R8]YQAAFI[S5]HYV-NH2; staple 4-11) | 1.2 ± 0.03 | 8.6 ± 0.4
CCCC[C@H](NC(=O)[C@@H](NC(C)=O)C(C)C)C(=O)N[C@@H](CCC(=O)O)C(=O)N[C@]1(C)CCCCCCC=CCCC[C@@](C)(C(=O)N[C@@H](Cc2c[nH]cn2)C(=O)N[C@@H](Cc2ccc(O)cc2)C(=O)N[C@H](C(N)=O)C(C)C)NC(=O)[C@H]([C@@H](C)CC)NC(=O)[C@H](Cc2ccccc2)NC(=O)[C@H](C)NC(=O)[C@H](C)NC(=O)[C@H](CCC(N)=O)NC(=O)[C@H](Cc2ccc(O)cc2)NC1=O [FP07868] (Ac-V[Nle]E[R8]YQAAFI[S5]HYV-NH2; staple 4-11) | 1.2 ± 0.10 | 10.3 ± 1.4
CCCC[C@H](NC(=O)[C@@H](NC(C)=O)C(C)C)C(=O)N[C@@H](CCC(N)=O)C(=O)N[C@]1(C)CCCCCCC=CCCC[C@@](C)(C(=O)N[C@@H](Cc2c[nH]cn2)C(=O)N[C@@H](Cc2ccc(O)cc2)C(=O)N[C@H](C(N)=O)C(C)C)NC(=O)[C@H]([C@@H](C)CC)NC(=O)[C@H](Cc2ccccc2)NC(=O)[C@H](C)NC(=O)[C@H](C)NC(=O)[C@H](CCC(N)=O)NC(=O)[C@H](Cc2ccc(O)cc2)NC1=O [FP07871] (Ac-V[Nle]Q[R8]YQAAFI[S5]HYV-NH2; staple 4-11) | 1.2 ± 0.03 | 7.0 ± 0.3
CCCC[C@H](NC(=O)[C@@H](NC(C)=O)C(C)C)C(=O)N[C@@H](CCC(N)=O)C(=O)N[C@]1(C)CCCCCCC=CCCC[C@@](C)(C(=O)N[C@@H](Cc2c[nH]cn2)C(=O)N[C@@H](Cc2ccc(O)cc2)C(=O)N[C@H](C(N)=O)C(C)C)NC(=O)[C@H]([C@@H](C)CC)NC(=O)[C@H](Cc2ccccc2)NC(=O)[C@H](C)NC(=O)[C@H](C)NC(=O)[C@H](CCC(N)=O)NC(=O)[C@H](Cc2ccc(O)cc2)NC1=O [FP07872] (Ac-V[Nle]Q[R8]YQAAFI[S5]HYV-NH2; staple 4-11) | 1.1 ± 0.02 | 11.7 ± 1.6
CC[C@H](C)[C@H](NC(=O)[C@H](Cc1ccc(O)cc1)NC(=O)[C@H](CCC(N)=O)NC(=O)[C@]1(C)CCCC=CCCCCCC[C@@](C)(NC(=O)[C@H](Cc2c[nH]cn2)NC(=O)[C@@H](NC(=O)[C@@H](NC(C)=O)[C@@H](C)CC)[C@@H](C)CC)C(=O)N[C@@H](Cc2ccc(O)cc2)C(=O)N[C@@H](CCC(=O)O)C(=O)N[C@@H](C)C(=O)N[C@@H](C)C(=O)N[C@@H](Cc2ccccc2)C(=O)N[C@@H](Cc2ccccc2)C(=O)N1)C(N)=O [FP08011] (Ac-IIH[R8]YEAAFF[S5]QYI-NH2; staple 4-11) | 1.2 ± 0.01 | 6.5 ± 0.5
CC[C@H](C)[C@H](NC(=O)[C@H](Cc1ccc(O)cc1)NC(=O)[C@H](CCC(N)=O)NC(=O)[C@]1(C)CCCC=CCCCCCC[C@@](C)(NC(=O)[C@H](Cc2c[nH]cn2)NC(=O)[C@@H](NC(=O)[C@@H](NC(C)=O)[C@@H](C)CC)[C@@H](C)CC)C(=O)N[C@@H](Cc2ccc(O)cc2)C(=O)N[C@@H](CCC(=O)O)C(=O)N[C@@H](C)C(=O)N[C@@H](C)C(=O)N[C@@H](Cc2ccccc2)C(=O)N[C@@H](Cc2ccccc2)C(=O)N1)C(N)=O [FP08012] (Ac-IIH[R8]YEAAFF[S5]QYI-NH2; staple 4-11) | 1.1 ± 0.04 | 5.4 ± 0.9
CCCC[C@H](NC(=O)[C@H](Cc1ccc(O)cc1)NC(=O)[C@H](CCC(N)=O)NC(=O)[C@]1(C)CCCC=CCCCCCC[C@@](C)(NC(=O)[C@H](CCC(=O)O)NC(=O)[C@H](CC(C)C)NC(=O)[C@@H](NC(C)=O)[C@@H](C)CC)C(=O)N[C@@H](Cc2ccc(O)cc2)C(=O)N[C@@H](CCC(=O)O)C(=O)N[C@@H](C)C(=O)N[C@@H](C)C(=O)N[C@@H](Cc2ccccc2)C(=O)N[C@@H](CCC(=O)O)C(=O)N1)C(N)=O [FP08017] (Ac-ILE[R8]YEAAFE[S5]QY[Nle]-NH2; staple 4-11) | 1.2 ± 0.01 | 0.6 ± 0.1
CCCC[C@H](NC(=O)[C@H](Cc1ccc(O)cc1)NC(=O)[C@H](CCC(N)=O)NC(=O)[C@]1(C)CCCC=CCCCCCC[C@@](C)(NC(=O)[C@H](CCC(=O)O)NC(=O)[C@H](CC(C)C)NC(=O)[C@@H](NC(C)=O)[C@@H](C)CC)C(=O)N[C@@H](Cc2ccc(O)cc2)C(=O)N[C@@H](CCC(=O)O)C(=O)N[C@@H](C)C(=O)N[C@@H](C)C(=O)N[C@@H](Cc2ccccc2)C(=O)N[C@@H](CCC(=O)O)C(=O)N1)C(N)=O [FP08018] (Ac-ILE[R8]YEAAFE[S5]QY[Nle]-NH2; staple 4-11) | 1.1 ± 0.05 | 1.0 ± 0.1
CCCC[C@H](NC(=O)[C@@H](NC(C)=O)[C@@H](C)CC)C(=O)N[C@@H](C)C(=O)N[C@]1(C)CCCCCCC=CCCC[C@@](C)(C(=O)N[C@@H](CCC(N)=O)C(=O)N[C@@H](Cc2ccc(O)cc2)C(=O)N[C@@H](CC(N)=O)C(N)=O)NC(=O)[C@H](Cc2c[nH]c3ccccc23)NC(=O)[C@H](Cc2ccccc2)NC(=O)[C@H](C)NC(=O)[C@H](C)NC(=O)[C@H](CCC(N)=O)NC(=O)[C@H](Cc2ccc(O)cc2)NC1=O [FP08023] (Ac-I[Nle]A[R8]YQAAFW[S5]QYN-NH2; staple 4-11) | 1.2 ± 0.03 | 3.0 ± 0.3

Reference: PMC9907135 (Proceedings of the National Academy of Sciences of the …, 2022)
